Results on six compounds are retold here after patent US6297237A, “Process for the preparation of aminocarbonyl derivatives of geneseroline having selective brain anticholinesterase activity” (priority 1997, dated 2001).

SMILES strings stand for the structures. Counter-ions that a name gives are not always drawn. Like-named read-outs stand apart in the source and are kept apart here.

Test [1] addresses T1, brain AChE (Rattus norvegicus, UniProt P37136).
T1 construct: from tissue; host or cells: rat brain (male SD rats), homogenate in Triton/phosphate buffer, supernatant
Put plainly: Rat brain AChE inhibition ex vivo after oral administration (Table 1). Type of test: in vivo. To be noted: for ED50: read-out: ED50 (dose of compound to inhibit 50% of the enzyme), p.o., brain AChE, C.L. 95% given; for inhibition at 3 mg/kg: 3 mg/kg p.o.; for Potency relative to CHF 2060: inhibition of AChE after oral administration in rat. As to the method: (§1) In a preferred embodiment of the present invention, compounds CHF 2819, CHF 2957, CHF 2822 were evaluated for their enzymatic inhibition potency and selectivity of action through a series of parameters in comparison with n-heptylaminocarbonylgeneseroline hydrochloride (CHF2060).
(§2) Male SD rats weighing 150-200 g were split into groups of 8 animals each, depending on the treatment with the different substances, which were orally administered in distilled water, at a volume of 2 ml/kg. After 2 hours from the administration, the animals were sacrificed as to take their brains. Brain tissue was homogenized in a […] solution in 0.1 M phosphate buffer at pH 8. After 15 minutes centrifugation, at 4° C., the supernatant was separated and AChE was determined on it with the method described by ElIman G. L. et al. (Biochem Pharmacol. 7, 88-95, 1961). For each treatment enzyme inhibition percent was determined against controls (animals treated with distilled water only).

The target in test [2] is T1, brain AChE. The test can be described thus: Inhibition kinetics of brain AChE after oral administration (Table 2). Type of test: in vivo. To be noted: for selectivity index*: Brain AUC/Heart AUC; for selectivity index* / brain AUC (% inhib · xh) / inhibition at 9 mg/kg: p.o. at 1/7 LD50: CHF 2060 10, CHF 2819 1.3, CHF 2822 2.5, CHF 2957 9 mg/kg, rat; for brain AUC (% inhib · xh) / inhibition at 9 mg/kg: 1, 4, 16 h; for inhibition at 9 mg/kg: po, read-out: brain AChE maximum % inhibition. As to the method:
as §1, §2
(§3) Another series of experiments was performed in order to determine inhibition kinetics of brain and heart AChE after 1, 4 and 16 hours from administration of each tested substance. Enzyme was assayed on tissue homogenates similarly to what above described. […] Area Under Curve (AUC) was calculated by means of the enzymatic inhibition curve, for brain and heart tissue, related to the three test times.

Test [3] concerns heart AChE. The test can be described thus: Inhibition kinetics of heart AChE after oral administration (Table 2). Type of test: in vivo. To be noted: p.o. at 1/7 LD50: CHF 2060 10, CHF 2819 1.3, CHF 2822 2.5, CHF 2957 9 mg/kg; 1, 4, 16 h; rat. As for the experimental part:
as §1, §2, §3

Test [4] deals with T2, erythrocyte AChE (Homo sapiens, UniProt P22303).
T2 construct: from tissue
T2 sequence (P22303 other isoform, or with tags, fused parts or gaps): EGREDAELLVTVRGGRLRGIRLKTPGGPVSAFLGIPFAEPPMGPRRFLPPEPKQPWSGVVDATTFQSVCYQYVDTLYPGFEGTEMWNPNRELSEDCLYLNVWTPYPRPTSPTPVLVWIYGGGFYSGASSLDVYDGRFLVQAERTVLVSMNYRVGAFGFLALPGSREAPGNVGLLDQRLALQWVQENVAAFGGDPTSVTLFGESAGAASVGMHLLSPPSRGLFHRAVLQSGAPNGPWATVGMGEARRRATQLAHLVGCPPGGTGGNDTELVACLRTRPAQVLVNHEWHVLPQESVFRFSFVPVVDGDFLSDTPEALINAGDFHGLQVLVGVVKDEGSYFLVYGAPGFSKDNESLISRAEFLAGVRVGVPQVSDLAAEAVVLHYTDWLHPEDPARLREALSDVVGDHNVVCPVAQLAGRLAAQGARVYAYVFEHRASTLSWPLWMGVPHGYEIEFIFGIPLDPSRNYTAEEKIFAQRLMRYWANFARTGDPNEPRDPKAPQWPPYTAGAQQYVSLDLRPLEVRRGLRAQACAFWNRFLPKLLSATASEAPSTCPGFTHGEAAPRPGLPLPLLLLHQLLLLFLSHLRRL
The test can be described thus: In vitro inhibition of erythrocyte AChE (Table 3). The class given is biochemical. To be noted: for IC50: erythrocyte AChE, n = 4-8, read-out: AChE IC50 (μM) ± s.e.; for S.I.: selectivity index (IC50 BuChE/IC50 AChE).

Test [5] has as its target T3, human plasma BuChE (Homo sapiens, UniProt P06276).
T3 construct: human plasma BuChE; from tissue; host or cells: human plasma
The test can be described thus: In vitro inhibition of human plasma BuChE (Table 3). The class given is biochemical. The note with it: for IC50: human plasma BuChE, n = 4-8, read-out: BuChE IC50 (μM) ± s.e.

The test system of test [6] is brain acetylcholinesterase (AChE). The note with it: European patent 0599890; cited from earlier work.

T1 sequence (P37136 32-614): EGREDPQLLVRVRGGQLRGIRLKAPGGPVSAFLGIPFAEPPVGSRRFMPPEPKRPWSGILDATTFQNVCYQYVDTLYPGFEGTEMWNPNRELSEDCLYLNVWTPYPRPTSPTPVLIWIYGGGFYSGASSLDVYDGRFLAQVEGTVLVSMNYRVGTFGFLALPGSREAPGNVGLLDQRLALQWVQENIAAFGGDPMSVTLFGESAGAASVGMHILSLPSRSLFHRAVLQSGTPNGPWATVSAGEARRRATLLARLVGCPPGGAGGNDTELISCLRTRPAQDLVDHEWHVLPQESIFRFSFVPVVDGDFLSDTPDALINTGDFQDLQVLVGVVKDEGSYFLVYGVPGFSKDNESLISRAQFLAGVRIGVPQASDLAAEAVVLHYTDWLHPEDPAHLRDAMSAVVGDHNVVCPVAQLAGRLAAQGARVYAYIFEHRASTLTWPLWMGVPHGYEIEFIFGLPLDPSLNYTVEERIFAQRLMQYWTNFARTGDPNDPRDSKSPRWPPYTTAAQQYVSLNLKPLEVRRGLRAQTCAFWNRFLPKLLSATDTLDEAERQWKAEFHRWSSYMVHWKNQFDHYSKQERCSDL
T3 sequence (P06276 29-602): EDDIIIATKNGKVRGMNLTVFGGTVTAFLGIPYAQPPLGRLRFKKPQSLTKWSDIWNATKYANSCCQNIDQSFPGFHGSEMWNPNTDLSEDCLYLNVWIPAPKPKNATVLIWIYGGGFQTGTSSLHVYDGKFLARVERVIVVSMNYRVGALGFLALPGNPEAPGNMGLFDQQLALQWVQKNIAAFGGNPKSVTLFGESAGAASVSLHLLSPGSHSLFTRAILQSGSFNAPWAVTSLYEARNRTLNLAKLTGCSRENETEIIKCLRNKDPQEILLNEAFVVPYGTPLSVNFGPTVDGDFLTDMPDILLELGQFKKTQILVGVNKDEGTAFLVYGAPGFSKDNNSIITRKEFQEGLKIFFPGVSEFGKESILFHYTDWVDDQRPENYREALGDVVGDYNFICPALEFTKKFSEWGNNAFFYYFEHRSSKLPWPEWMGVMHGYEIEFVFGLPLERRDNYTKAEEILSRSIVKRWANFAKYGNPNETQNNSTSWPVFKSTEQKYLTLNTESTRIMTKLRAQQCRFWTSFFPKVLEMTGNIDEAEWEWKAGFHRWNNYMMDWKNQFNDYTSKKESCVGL

As usually defined, the ED50 is the dose that gives a 50% effect, or the effect in half of the subjects. As usually defined, the inhibition is the drop in the measured response relative to a control, in per cent. For orientation: IC50 means the point on the concentration scale where inhibition reaches its midpoint. For `CCCCCCCNC(=O)Oc1ccc2c(c1)[C@]1(C)CCN(C)OC1N2C` (stereo partly shown) [CHF 2060, n-heptylaminocarbonylgeneseroline hydrochloride, reference compound], in test [1], the “Potency order (*)” value was determined as 1. In addition, the 50% effective dose (ED50) in test [1] (po, rat, 2 h) was 13.2 mg/kg. Further, the inhibition at 3 mg/kg in test [1] (rat, po, 2 h, SD rats) is 8%. Moreover, in test [1] (rat, po, 10 mg/kg p.o., 2 h, SD rats), 10 mg/kg produced 29% inhibition. The same compound gave an inhibition at 30 mg/kg in test [1] (rat, po, 30 mg/kg p.o., 2 h, SD rats) of 60%. For the same compound, in test [2], the “selectivity index*” value is reported as 0.6, the “brain AUC (% inhib · xh)” value is listed as 252 % inhib · xh and the inhibition at 9 mg/kg stood at 20%. In test [3], the “Heart AChE maximum % inhibition” value is 41% and the “Heart AUC (% inhib · xh)” value was 450 % inhib · xh. Further, the IC50 in test [4] (in vitro) stood at 0.85 ± 0.08 µM. Besides, the S.I. in test [4] stood at 0.005. In test [5], the “BuChE inhibition relative to AChE (in words)” value is reported as “definitely more potent in inhibiting BuChE, rather than AChE” and the 50% inhibitory concentration (IC50) amounted to 0.005 ± 0.0007 µM. In addition, the “brain acetylcholinesterase inhibition, duration (in words)” value in test [6] is given as “inhibitor of brain acetylcholinesterase characterised by a long action”.

`CCc1ccccc1NC(=O)Oc1ccc2c(c1)[C@]1(C)CCN(C)OC1N2C` (stereo partly shown) [CHF 2819, n-(2-ethylphenyl)aminocarbonylgeneseroline hydrochloride]: the “Potency relative to CHF 2060” value in test [1] was determined as 8 times. In test [1] (po, rat, 2 h), the ED50 was 1.5 mg/kg. In test [1] (rat p.o., CHF 2060 = 1), the “Potency order (*)” value came to 8. In test [1] (rat, po, 0.4 mg/kg p.o., 2 h, SD rats), this compound returned an inhibition at 0.4 mg/kg of 9%. Moreover, in test [1] (rat, po, 1.3 mg/kg p.o., 2 h, SD rats), the inhibition at 1.3 mg/kg was determined as 34%. Further, the inhibition at 3.7 mg/kg in test [1] (rat, po, 3.7 mg/kg p.o., 2 h, SD rats) came out at 55%. In test [2], the “selectivity index*” value is 9.7 and the “brain AUC (% inhib · xh)” value was 348 % inhib · xh. In addition, the “in vivo selectivity in inhibiting brain AChE (in words)” value in test [2] (brain versus heart/peripheral) is “"in vivo" selectivity in inhibiting brain AChE”. For the same compound, the “duration of action (in words)” value in test [2] (in vivo) was “good duration of action”. In addition, in test [3], the “Heart AChE maximum % inhibition” value was determined as 4% and the “Heart AUC (% inhib · xh)” value came to 36 % inhib · xh. For the same compound, in test [4] (in vitro), the “selectivity AChE versus BuChE (in words)” value is given as “favourable "in vitro" selectivity on AChE with respect to BuChE” and the half-inhibitory concentration (IC50) is 0.48 ± 0.06 µM. In test [4] (in vitro, AChE versus BuChE, from selectivity index), the “selectivity on AChE” value is given as 115 times. Besides, the S.I. in test [4] was found to be 115. Also, the IC50 in test [5] stood at 55.2 ± 6.43 µM.

On to `Cc1ccccc1NC(=O)Oc1ccc2c(c1)[C@]1(C)CCN(C)OC1N2C` (stereo partly shown) [CHF 2822, n-(2-methylphenyl)aminocarbonylgeneseroline hydrochloride], for which the “Potency relative to CHF 2060” value in test [1] is reported as 7 times. The ED50 in test [1] (po, rat, 2 h) was 1.6 mg/kg. In test [1] (rat p.o., CHF 2060 = 1), the “Potency order (*)” value is on record as 7. The inhibition at 0.8 mg/kg in test [1] (rat, po, 0.8 mg/kg p.o., 2 h, SD rats) stood at 25%. In test [1] (rat, po, 2.5 mg/kg p.o., 2 h, SD rats), this compound gave an inhibition at 2.5 mg/kg of 46%. Moreover, in test [1] (rat, po, 7.5 mg/kg p.o., 2 h, SD rats), the inhibition at 7.5 mg/kg is 68%. For the same compound, in test [2], the “selectivity index*” value turned out to be 3.9 and the “brain AUC (% inhib · xh)” value was determined as 379 % inhib · xh. Further, in test [3], the “Heart AChE maximum % inhibition” value turned out to be 9% and the “Heart AUC (% inhib · xh)” value turned out to be 96 % inhib · xh. In test [4] (in vitro), the “selectivity AChE versus BuChE (in words)” value is “slightly less selective” and the IC50 was 2.01 ± 0.08 µM. The same compound returned a S.I. in test [4] of 0.09. In test [5], the 50% inhibitory concentration (IC50) stood at 0.18 ± 0.01 µM.

Turning to `Cc1cccc(NC(=O)Oc2ccc3c(c2)[C@]2(C)CCN(C)OC2N3C)c1` (stereo partly shown) [CHF 2957, n-(3-methylphenyl)aminocarbonylgeneseroline hydrochloride], the “Potency relative to CHF 2060” value in test [1] was 3 times. Besides, in test [1] (po, rat, 2 h), the ED50 stood at 4.1 mg/kg. Also, the “Potency order (*)” value in test [1] (rat p.o., CHF 2060 = 1) was 3. For the same compound, in test [1] (rat, po, 2 h, SD rats), the inhibition at 3 mg/kg came to 21%. In test [1] (rat, po, 6 mg/kg p.o., 2 h, SD rats), this compound yielded an inhibition at 6 mg/kg of 56%. In addition, at 9 mg/kg the inhibition in test [1] (rat, po, 9 mg/kg p.o., 2 h, SD rats) was 67%. Also, in test [2], the “selectivity index*” value is reported as 4.7, the “brain AUC (% inhib · xh)” value was 585 % inhib · xh and the inhibition at 9 mg/kg came to 62%. In test [3], the “Heart AChE maximum % inhibition” value was determined as 13% and the “Heart AUC (% inhib · xh)” value is recorded as 125 % inhib · xh. In test [4] (in vitro), the “selectivity AChE versus BuChE (in words)” value is listed as “good selectivity” and the IC50 amounted to 4.2 ± 0.29 µM. Moreover, the S.I. in test [4] is 32. In test [5], the IC50 stood at 134 ± 9.7 µM.

Take `CNC(=O)Oc1ccc2c(c1)[C@]1(C)CCN(C)[C@@H]1N2C` [Physostigmine, reference compound]: the S.I. in test [4] worked out at 0.27.

For the compound `CCN(C)C(=O)Oc1cccc([C@H](C)N(C)C)c1` [SDZ-ENA 713, reference compound], in test [4] (in vitro, evaluated as IC50), the “AChE affinity / activity (in words)” value is listed as “less active than other products”. The compound also displayed a S.I. in test [4] of 0.007.
